Experimental data as given in patent publication US5468734A, “Prophylactic and remedial preparation for diseases attendant on hyperglycemia, and wholesome food” (Godo Shusei Co., Ltd., priority 1992, dated 1995).
“Also recorded” adds a separate entry of the source. Read-outs that look alike come from different tables or passages of the source.

Columns and labels:
[1] = molecular target: T1, sucrase (carbohydrase derived from rabbit small intestine mucous membrane) (Oryctolagus cuniculus, UniProt P07768); assay: Action to inhibit the hydrolytic activity of homogenate prepared from rabbit small intestine mucous membrane: sucrase inhibition; assay type: biochemical; conditions: for inhibition at 250 µg/mL / inhibition at 500 µg/mL / inhibition at 1000 µg/mL / inhibition at 2000 µg/mL: 0.25 h, substrate sucrose 20 mM, pH 6.8, 37° C., 15 minutes, read-out: Sucrase inhibition rate; for inhibition at 250 µg/mL: 25 mg/dl; for inhibition at 500 µg/mL: 50 mg/dl; for inhibition at 1000 µg/mL: 100 mg/dl; for inhibition at 2000 µg/mL: 200 mg/dl
T1 construct: suspended again in a 10 mM potassium phosphate buffer (pH: 7.0), thereby obtaining a crude enzyme suspension; from tissue; host or cells: rabbit small intestine (title: mucous membrane), homogenate, 60,000×g precipitate
Description: (§1) (Action to inhibit the hydrolytic activity of homogenate prepared from rabbit small intestine mucous membrane to carbohydrate)
(§2) A native kind of white rabbits (weight: 3.0-3.5 kg) were sacrificed by exsanguination to take out their small intestines.
(§3) After freezing and thawing the small intestines thus taken out, they were homogenized in a 5 mM EDTA buffer (pH: 7.0) and subjected to centrifugation for 60 minutes at 60,000×g. Precipitate thus formed was collected and suspended again in a 10 mM potassium phosphate buffer (pH: 7.0), thereby obtaining a crude enzyme suspension.
(§4) Sucrose (20 mM) and maltose (20 mM) were used as substrates.
(§5) Each reaction mixture was formulated so as to contain 350 microliters of a 100 mM maleate buffer (pH: 6.8), 100 microliters of a substrate solution, 50 microliters of the crude enzyme suspension and 50 microliters of a test solution. Substances to be tested were separately dissolved in a maleate buffer (pH: 6.8) before use.
(§6) Respective reactions were conducted for 15 minutes at 37° C.

[2] = tested on: maltase (carbohydrase derived from rabbit small intestine mucous membrane); assay: Action to inhibit the hydrolytic activity of homogenate prepared from rabbit small intestine mucous membrane: maltase inhibition; assay type: biochemical; conditions: for Maltase inhibition rate: substrate maltose 20 mM, pH 6.8, 37° C., 15 minutes
Description: as §1, §2, §3, §4, §5, §6

[3] = tested on: rise in blood sugar; assay: Action to depress the rise in blood sugar after sucrose loading to mice; assay type: in vivo, ICR male mice; conditions: for Rise in blood sugar / action to depress the rise in blood sugar due to sucrose loading (in words): sucrose 1 g/kg; for Rise in blood sugar: average ± standard error; for action to depress the rise in blood sugar due to sucrose loading (in words): orally 25, 50 and 100 mg/kg (L-arabinose, D-xylose) or 100 mg/kg (others); for action to depress the rise in blood sugar for sucrose or starch loading (in words): summary statement
Description: (Action to depress the rise in blood sugar after carbohydrate loading)
ICR male mice (weight 30-35 g) were used in proportions of 5 mice per group.
After causing the mice to fast, sucrose or starch was orally administered in a proportion of 1 g/kg to the mice of each group, and at the same time substances to be tested were orally given to mice of their corresponding groups.
Blood was collected from the retroorbital sinus of each mouse before carbohydrate loading and upon elapsed times of 30 minutes, 60 minutes and 120 minutes after the loading to determine the concentration of glucose in the blood plasma by the glucose oxidase method.

[4] = tested on: rise in blood sugar; assay: Action to depress the rise in blood sugar after starch loading to mice; assay type: in vivo, ICR male mice; conditions: starch 1 g/kg; for Rise in blood sugar: average ± standard error
[5] = assay type: in vivo, ICR male mice
Excerpt: (Action to depress increase in body weight of mice)
ICR male mice after the elapse of 5 weeks from their birth were used in proportions of 10 mice per group.
Mice of a control group were caused to freely ingest the same feed as those used in the run groups except that L-arabinose was not added.
The mice of each group were separately weighed after 10 days, 20 days, 30 days and 60 days from the beginning of the ingestion to determine their weight increases from the initial weights, thereby calculating an average value of the weights increased in each group. The amounts of the feeds and water ingested were also determined.

[6] = in vivo; cited from earlier work
[7] = dose 100 mg/kg oral, after 30 min.
[8] = dose 100 mg/kg oral, after 60 min.
[9] = dose 100 mg/kg oral, after 120 min.
[10] = dose 25 mg/kg oral, after 30 min.
[11] = dose 25 mg/kg oral, after 60 min.
[12] = dose 50 mg/kg oral, after 30 min.
[13] = dose 50 mg/kg oral, after 60 min.
[14] = 0.5%, 1.0%, 2.0% in feed, during the experiment

T1 sequence (P07768 1008-1827 limits assumed): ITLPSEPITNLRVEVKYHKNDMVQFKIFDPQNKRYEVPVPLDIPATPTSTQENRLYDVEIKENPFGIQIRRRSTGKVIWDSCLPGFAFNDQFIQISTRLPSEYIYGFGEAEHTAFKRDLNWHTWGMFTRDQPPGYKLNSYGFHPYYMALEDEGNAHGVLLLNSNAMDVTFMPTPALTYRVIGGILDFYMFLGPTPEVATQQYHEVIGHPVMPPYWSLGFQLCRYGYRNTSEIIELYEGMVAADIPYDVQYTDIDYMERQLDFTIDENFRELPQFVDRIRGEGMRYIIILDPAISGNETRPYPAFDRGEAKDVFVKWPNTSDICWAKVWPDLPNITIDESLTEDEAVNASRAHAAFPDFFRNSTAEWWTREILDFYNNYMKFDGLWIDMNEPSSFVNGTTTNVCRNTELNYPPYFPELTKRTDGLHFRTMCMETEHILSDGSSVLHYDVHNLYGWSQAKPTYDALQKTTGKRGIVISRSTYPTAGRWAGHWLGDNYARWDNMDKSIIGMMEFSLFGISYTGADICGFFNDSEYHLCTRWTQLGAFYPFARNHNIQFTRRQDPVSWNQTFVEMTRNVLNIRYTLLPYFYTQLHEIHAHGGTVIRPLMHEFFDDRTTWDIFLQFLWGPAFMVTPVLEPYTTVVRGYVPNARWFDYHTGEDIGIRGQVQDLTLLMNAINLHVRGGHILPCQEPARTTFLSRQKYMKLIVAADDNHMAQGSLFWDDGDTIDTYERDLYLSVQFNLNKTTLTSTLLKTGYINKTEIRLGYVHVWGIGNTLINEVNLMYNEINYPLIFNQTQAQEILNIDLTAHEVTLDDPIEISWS
T1 sequence (P07768 2-1007 partner limits assumed): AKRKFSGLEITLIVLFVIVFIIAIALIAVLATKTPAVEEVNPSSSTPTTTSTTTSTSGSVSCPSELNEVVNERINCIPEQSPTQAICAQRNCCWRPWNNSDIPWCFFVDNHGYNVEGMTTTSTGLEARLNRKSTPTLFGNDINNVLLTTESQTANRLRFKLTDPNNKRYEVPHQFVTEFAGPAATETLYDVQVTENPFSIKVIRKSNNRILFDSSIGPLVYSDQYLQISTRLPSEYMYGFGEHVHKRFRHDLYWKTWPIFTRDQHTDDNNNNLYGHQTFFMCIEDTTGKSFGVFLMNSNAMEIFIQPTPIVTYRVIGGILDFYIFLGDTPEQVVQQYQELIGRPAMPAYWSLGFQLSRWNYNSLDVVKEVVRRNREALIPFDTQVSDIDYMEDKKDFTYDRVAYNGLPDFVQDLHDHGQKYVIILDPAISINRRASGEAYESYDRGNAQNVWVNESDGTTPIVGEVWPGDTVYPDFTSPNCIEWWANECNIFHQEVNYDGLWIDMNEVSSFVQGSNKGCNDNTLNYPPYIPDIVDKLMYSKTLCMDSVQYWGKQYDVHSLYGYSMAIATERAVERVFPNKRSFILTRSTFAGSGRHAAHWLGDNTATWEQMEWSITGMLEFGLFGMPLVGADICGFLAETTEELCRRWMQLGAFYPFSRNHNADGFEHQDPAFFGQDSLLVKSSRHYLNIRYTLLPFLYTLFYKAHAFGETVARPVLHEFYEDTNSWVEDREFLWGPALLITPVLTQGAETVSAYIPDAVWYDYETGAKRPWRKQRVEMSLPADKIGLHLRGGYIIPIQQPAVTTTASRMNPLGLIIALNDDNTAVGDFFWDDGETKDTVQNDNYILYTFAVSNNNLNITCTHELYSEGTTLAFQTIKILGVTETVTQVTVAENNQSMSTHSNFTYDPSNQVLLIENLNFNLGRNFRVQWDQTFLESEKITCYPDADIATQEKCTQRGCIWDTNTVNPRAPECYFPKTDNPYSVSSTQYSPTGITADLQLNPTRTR

For `O=C(CO)[C@@H](O)[C@@H](O)[C@H](O)CO` [D-Tagatose, D-tagatose], the “sucrase-inhibiting action (in words)” value [1] was “strong sucrase-inhibiting action”, the inhibition at 250 µg/mL [1] was 8.9% and the inhibition at 500 µg/mL [1] was 15.7%. The inhibition at 1000 µg/mL [1] was 30%, the inhibition at 2000 µg/mL [1] was 36.6% and the “maltase-inhibiting action (in words)” value [2] was “strong sucrase-inhibiting action and maltase-inhibiting action”. It also gave a Maltase inhibition rate ([2]; 25 mg/dl) of 12.5%, a Maltase inhibition rate ([2]; 50 mg/dl) of 17.7% and a Maltase inhibition rate ([2]; 100 mg/dl) of 30.3%. The Maltase inhibition rate ([2]; 200 mg/dl) was 33.9%, the “Rise in blood sugar” value [3, 7] was 60.7 Δmg/dl and the “Rise in blood sugar” value [3, 8] was 44.4 Δmg/dl. The “Rise in blood sugar” value [3, 9] was 26.3 Δmg/dl, the “action to depress the rise in blood sugar due to sucrose loading (in words)” value (from here on “action … to sucrose loading (in words)”) [3] was “significantly depressed” and the “action to depress the rise in blood sugar for sucrose or starch loading (in words)” value [3] was “effective action to depress the rise in blood sugar”.

For `C[C@H](O)[C@@H](O)[C@@H](O)[C@H](O)C=O` [L-Fucose, L-fucose], the “sucrase-inhibiting action (in words)” value [1] was “strong sucrase-inhibiting action”, the inhibition at 250 µg/mL [1] was 11.6% and the inhibition at 500 µg/mL [1] was 16.2%. For the same compound, the inhibition at 1000 µg/mL [1] was 32.8%, the inhibition at 2000 µg/mL [1] was 30.7% and the “maltase-inhibiting action (in words)” value [2] was “strong sucrase-inhibiting action and maltase-inhibiting action”. It also gave a Maltase inhibition rate ([2]; 25 mg/dl) of 16.4%, a Maltase inhibition rate ([2]; 50 mg/dl) of 18.4% and a Maltase inhibition rate ([2]; 100 mg/dl) of 24.8%. For the same compound, the Maltase inhibition rate ([2]; 200 mg/dl) was 31.0%, the “Rise in blood sugar” value [3, 7] was 62.0 Δmg/dl and the “Rise in blood sugar” value [3, 8] was 44.4 Δmg/dl. The “Rise in blood sugar” value [3, 9] was 26.3 Δmg/dl, the “action … to sucrose loading (in words)” value [3] was “significantly depressed” and the “action to depress the rise in blood sugar for sucrose or starch loading (in words)” value [3] was “effective action to depress the rise in blood sugar”.

With `O=C[C@H](O)[C@H](O)[C@H](O)CO` [D-Ribose, D-ribose] the “sucrase-inhibiting action (in words)” value [1] was “strong sucrase-inhibiting action”, the inhibition at 250 µg/mL [1] was 13.7% and the inhibition at 500 µg/mL [1] was 17.8%. For the same compound, the inhibition at 1000 µg/mL [1] was 34%, the inhibition at 2000 µg/mL [1] was 33.4% and the “maltase-inhibiting action (in words)” value [2] was “strong sucrase-inhibiting action and maltase-inhibiting action”. It also gave a Maltase inhibition rate ([2]; 25 mg/dl) of 13.5%, a Maltase inhibition rate ([2]; 50 mg/dl) of 18.4% and a Maltase inhibition rate ([2]; 100 mg/dl) of 33.3%. The Maltase inhibition rate ([2]; 200 mg/dl) was 46.5%, the “Rise in blood sugar” value [3, 7] was 61.2 Δmg/dl and the “Rise in blood sugar” value [3, 8] was 48.5 Δmg/dl. The “action … to sucrose loading (in words)” value [3] was “significantly depressed” and the “action to depress the rise in blood sugar for sucrose or starch loading (in words)” value [3] was “effective action to depress the rise in blood sugar”.

With `O=C[C@H](O)[C@@H](O)[C@@H](O)CO` [L-Arabinose, L-arabinose] the “sucrase-inhibiting action (in words)” value [1] was “strong sucrase-inhibiting action”, the inhibition at 250 µg/mL [1] was 25.3% and the inhibition at 500 µg/mL [1] was 37.8%. For the same compound, the inhibition at 1000 µg/mL [1] was 52%, the inhibition at 2000 µg/mL [1] was 66.3% and the “maltase-inhibiting action (in words)” value [2] was “strong sucrase-inhibiting action and maltase-inhibiting action”. The Maltase inhibition rate ([2]; 25 mg/dl) was 28.5%, the Maltase inhibition rate ([2]; 50 mg/dl) was 35.8% and the Maltase inhibition rate ([2]; 100 mg/dl) was 45.7%. The Maltase inhibition rate ([2]; 200 mg/dl) was 47.4%, the “Rise in blood sugar” value [3, 10] was 71.7 Δmg/dl and the “Rise in blood sugar” value [3, 11] was 49.4 Δmg/dl. For the same compound, the “Rise in blood sugar” value [3, 12] was 62.9 Δmg/dl, the “Rise in blood sugar” value [3, 13] was 37.3 Δmg/dl and the “Rise in blood sugar” value ([3]; dose 50 mg/kg oral, after 120 min.) was 21.5 Δmg/dl. The “Rise in blood sugar” value [3, 7] was 41.8 Δmg/dl, the “Rise in blood sugar” value [3, 8] was 30.4 Δmg/dl and the “Rise in blood sugar” value [3, 9] was 20.3 Δmg/dl. The “action … to sucrose loading (in words)” value [3] was “depressed in dependence on the dose”, the “action to depress the rise in blood sugar for sucrose or starch loading (in words)” value [3] was “remarkably effective in depressing the rise in blood sugar after carbohydrate loading; also recorded: effective action to depress the rise in blood sugar” and the “depressing action on the rise in blood sugar due to starch loading (in words)” value [4] was “depressing action on the rise in blood sugar due to starch loading in dependence on the dose”. The “Rise in blood sugar” value [4, 10] was 91.1 Δmg/dl, the “Rise in blood sugar” value [4, 11] was 68.5 Δmg/dl and the “Rise in blood sugar” value ([4]; dose 25 mg/kg oral, after 120 min.) was 29.8 Δmg/dl. The “Rise in blood sugar” value [4, 12] was 71.4 Δmg/dl, the “Rise in blood sugar” value [4, 13] was 54.6 Δmg/dl and the “Rise in blood sugar” value [4, 7] was 59.6 Δmg/dl. For the same compound, the “Rise in blood sugar” value [4, 8] was 48.3 Δmg/dl, the “Rise in blood sugar” value [4, 9] was 24.6 Δmg/dl and the Weight increase ([5]; 0.5% in feed (Group 1 / A1), after 10 days) was 5.9 g. The Weight increase ([5]; 0.5% in feed (Group 1 / A1), after 20 days) was 9.2 g, the Weight increase ([5]; 0.5% in feed (Group 1 / A1), after 30 days) was 12.4 g and the Weight increase ([5]; 0.5% in feed (Group 1 / A1), after 60 days) was 15.0 g. The death [5, 14] was “no death at all”, the “general medical condition and behavior” value [5, 14] was “no abnormality in general medical condition and behavior” and the “weight increase compared with control group (in words)” value ([5]; 0.5%, 1.0%, 2.0% in feed, up to 60 days) was “less weight increases compared with the mice of the control group”. For the same compound, the Weight increase ([5]; 1.0% in feed (Group 2 / A2), after 10 days) was 5.3 g, the Weight increase ([5]; 1.0% in feed (Group 2 / A2), after 20 days) was 8.0 g and the Weight increase ([5]; 1.0% in feed (Group 2 / A2), after 30 days) was 11.7 g. The Weight increase ([5]; 1.0% in feed (Group 2 / A2), after 60 days) was 13.8 g, the Weight increase ([5]; 2.0% in feed (Group 3 / A3), after 10 days) was 4.7 g and the Weight increase ([5]; 2.0% in feed (Group 3 / A3), after 20 days) was 7.2 g. For the same compound, the Weight increase ([5]; 2.0% in feed (Group 3 / A3), after 30 days) was 10.2 g, the Weight increase ([5]; 2.0% in feed (Group 3 / A3), after 60 days) was 12.1 g and the “uptake from the digestive tract” value [6] was “hard to be taken up from the digestive tract”.
